Test results published in PubChem BioAssay AID2060616 (Molecular Pharmacology Branch, DTP, NCI, 2025).

Test system: 377384-186-R-J1-PDC complex spheroid viability
Assay: Anticancer human tumor 377384-186-R-J1-PDC patient-derived pancreatic carcinoma cell line growth inhibition [CLK]
Details: for IC50: curve of first compound; for viability, T/C: stronger effect = lower value
Source text: A high-throughput screen of multi-cell type tumor spheroids was designed to identify active combinations of […] and targeted small molecules. Complex spheroids include a stromal component modeled by human endothelial cells (HUVEC) and fibroblasts modeled by human mesenchymal stem cells (MSCs). The concentration ranges selected for each drug and investigational agent were based upon clinically achievable concentrations if the clinical Cmax of the agent was known.
Compounds. The drugs and investigational agents: cirtuvivint (SM08502; NSC835563), CC-671 (NSC850746), vemurafenib (NSC761431), tapotoclax (NSC804041), sotorasib (NSC818433), adagrasib (NSC831453), MRTX-1133 (NSC836407), BAY2416964 (NSC825713), copanlisib (NSC816437), inavolisib (NSC800729), abemaciclib (NSC768073), osimertinib (NSC779217), entinostat (NSC756642), eltanexor (KPT-8602, NSC794443), venetoclax (NSC766270), ceralasertib (NSC777638), bortezomib (NSC756655), olaparib (NSC753686), talazoparib (NSC767125), alisertib (NSC759677), peposertib (NSC802822), gemcitabine (NSC613327), 5-fluorouracil (NSC19893), SN-38 (NSC673596), oxaliplatin (NSC266046), paclitaxel (NSC125973), and doxorubicin (NSC123127), were obtained from the National Cancer Institute (NCI) Developmental Therapeutics Program Chemical Repository. The FDA-approved anticancer drug set is available from the Developmental Therapeutics Program at https://dtp.cancer.gov/organization/dscb/obtaining/available plates.htm. […] The stock solutions were prepared in dimethyl sulfoxide (DMSO, Sigma-Aldrich, St. Louis, MO, cat. D2650), except for the platinum complexes which were prepared in saline (Quality Biological, Gaithersburg, MD, cat. 114-055-101), at 800-fold the tested concentration and stored at -70 degrees C prior to their use. All drugs and investigational agents were tested over a range starting from a high concentration at or near the clinical Cmax and decreasing in half-log increments. If the clinical Cmax for an agent had not been determined, the highest concentration tested was 10 microM.
Cell Culture. All cells were maintained in an incubator at 37 degrees C and 5% CO2 with 95% humidity. The PDC lines were cultured according to standard operating procedures established by the NCI PDMR. Briefly, all PDCs were thawed and cultured in Matrigel-coated flasks prepared with a working solution of 1X Ham's F-12 nutrient mix, without supplementation (Invitrogen, Waltham, MA, cat. 11765054), 100 U/mL penicillin-streptomycin (Invitrogen, cat. 15140122), and 2.5% Matrigel (Corning Inc., Corning, NY, cat. 354248) for the first three passages. The 947758-054-R-J2-PDC line was cultured in 6B/Colon 1A media, which includes advanced DMEM/F-12 (Thermo Fisher Scientific, cat. 12634028), 10 mM HEPES (Thermo Fisher Scientific, cat. 15630080), 1X GlutaMAX supplement (Thermo Fisher Scientific, cat. 35050061), 0.1 mg/mL primocin (InvivoGen, cat. ant-pm-2), 10% defined fetal bovine serum, heat inactivated (HyClone Laboratories Inc., cat. SH30070.03HI), 1.25 mM N-Acetyl-L-cysteine (Sigma-Aldrich, cat. A9165), 10 mM nicotinamide (Sigma-Aldrich, cat. N0636), 1X B-27 supplement (Thermo Fisher Scientific, cat. 17504044), 1X N-2 supplement (Thermo Fisher Scientific, cat. 17502048), and 10 microM Y-27632 dihydrochloride (Tocris Bioscience, cat. 1254). The 876862-298-R-J1-PDC was cultured in 6E media, which includes all 6B/Colon 1A media components plus 50% L-WRN conditioned media (ATCC, cat. CRL-3276), 50 ng/mL recombinant human EGF recombinant protein (hEGF; Thermo Fisher Scientific, cat. PHG0311), 10 ng/mL recombinant human fibroblast growth factor 10 (hGFG-10; PeproTech, cat. 100-26), 1 ng/mL recombinant human fibroblast growth factor 2 (hFGF-2; PeproTech, cat. 100-18B), and 1 µM prostaglandin E2 (PGE2; Tocris, cat. 2296). The 227483-062-R1-J1-PDC line was cultured in Panc media, containing all 6E components except hFGF-2, with the addition of 500 nM SB-431542 (Selleckchem, cat. S1067) and 10 nM gastrin (Tocris, cat. 3006). […]

[1] = second compound 0.0316 µM, first compound 0.0316 µM
[2] = second compound 0.0316 µM, first compound 0.1 µM
[3] = second compound 0.0316 µM, first compound 0.316 µM
[4] = second compound 0.0316 µM, first compound 1 µM
[5] = second compound 0.0316 µM, first compound 3.16 µM
[6] = second compound 0.0316 µM, first compound 10 µM
[7] = second compound 0.1 µM, first compound 0.0316 µM
[8] = second compound 0.1 µM, first compound 0.1 µM
[9] = second compound 0.1 µM, first compound 0.316 µM
[10] = second compound 0.1 µM, first compound 1 µM
[11] = second compound 0.1 µM, first compound 3.16 µM
[12] = second compound 0.1 µM, first compound 10 µM
[13] = second compound 0.316 µM, first compound 0.0316 µM
[14] = second compound 0.316 µM, first compound 0.1 µM
[15] = second compound 0.316 µM, first compound 0.316 µM
[16] = second compound 0.316 µM, first compound 1 µM
[17] = second compound 0.316 µM, first compound 3.16 µM
[18] = second compound 0.316 µM, first compound 10 µM
[19] = second compound 1 µM, first compound 0.0316 µM
[20] = second compound 1 µM, first compound 0.1 µM
[21] = second compound 1 µM, first compound 0.316 µM
[22] = second compound 1 µM, first compound 1 µM
[23] = second compound 1 µM, first compound 3.16 µM
[24] = second compound 1 µM, first compound 10 µM
[25] = second compound 3.16 µM, first compound 0.0316 µM
[26] = second compound 3.16 µM, first compound 0.1 µM
[27] = second compound 3.16 µM, first compound 0.316 µM
[28] = second compound 3.16 µM, first compound 1 µM
[29] = second compound 3.16 µM, first compound 3.16 µM
[30] = second compound 3.16 µM, first compound 10 µM
[31] = second compound 10 µM, first compound 0.0316 µM
[32] = second compound 10 µM, first compound 0.1 µM
[33] = second compound 10 µM, first compound 0.316 µM
[34] = second compound 10 µM, first compound 1 µM
[35] = second compound 10 µM, first compound 3.16 µM
[36] = second compound 10 µM, first compound 10 µM
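Note: spheroids exposed to agents for 7 days before reading.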
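Throughout, for viability, T/C: luminescence signal used as a stand-in for viable cells.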

C=C(F)C(=O)N1CCN(c2nc(OCC3CCCN3C)nc3c2CCN(c2cccc4cccc(Cl)c24)C3)CC1CC#N (centres undefined) + CN1CCN(c2cc(C(=O)Nc3cc4cc(-c5cnn(C)c5)ccc4cn3)ccn2)CC1
IC50 (second compound 0.0316 µM): 1.89 µM
IC50 (second compound 0.1 µM): 1.63 µM
IC50 (second compound 0.316 µM): < 0.0316 µM
IC50 (second compound 1 µM): < 0.0316 µM
IC50 (second compound 3.16 µM): < 0.0316 µM
IC50 (second compound 10 µM): < 0.0316 µM
viability, T/C [1]: 96.6%
viability, T/C [2]: 97.2%
viability, T/C [3]: 91.7%
viability, T/C [4]: 83.5%
viability, T/C [5]: 23.2%
viability, T/C [6]: 0.18%
viability, T/C [7]: 94.1%
viability, T/C [8]: 101%
viability, T/C [9]: 81.4%
viability, T/C [10]: 72.5%
viability, T/C [11]: 22.4%
viability, T/C [12]: 0.15%
viability, T/C [13]: 30.5%
viability, T/C [14]: 32.5%
viability, T/C [15]: 30.3%
viability, T/C [16]: 23.9%
viability, T/C [17]: 17.9%
viability, T/C [18]: 0.31%
viability, T/C [19]: 1.57%
viability, T/C [20]: 1.56%
viability, T/C [21]: 2.02%
viability, T/C [22]: 1.49%
viability, T/C [23]: 1.66%
viability, T/C [24]: 0.44%
viability, T/C [25]: 0.52%
viability, T/C [26]: 0.83%
viability, T/C [27]: 0.4%
viability, T/C [28]: 0.56%
viability, T/C [29]: 0.32%
viability, T/C [30]: 0.34%
viability, T/C [31]: 0.6%
viability, T/C [32]: 0.4%
viability, T/C [33]: 0.42%
viability, T/C [34]: 0.45%
viability, T/C [35]: 0.17%
viability, T/C [36]: 0.19%

C=CC(=O)N1CCN(c2nc(=O)n(-c3c(C)ccnc3C(C)C)c3nc(-c4c(O)cccc4F)c(F)cc23)C(C)C1 (centres undefined) + CN1CCN(c2cc(C(=O)Nc3cc4cc(-c5cnn(C)c5)ccc4cn3)ccn2)CC1
IC50 (second compound 0.0316 µM): > 10 µM
IC50 (second compound 0.1 µM): > 10 µM
IC50 (second compound 0.316 µM): < 0.0316 µM
IC50 (second compound 1 µM): < 0.0316 µM
IC50 (second compound 3.16 µM): < 0.0316 µM
IC50 (second compound 10 µM): < 0.0316 µM
viability, T/C [1]: 95.5%
viability, T/C [2]: 101%
viability, T/C [3]: 114%
viability, T/C [4]: 131%
viability, T/C [5]: 117%
viability, T/C [6]: 101%
viability, T/C [7]: 104%
viability, T/C [8]: 92.8%
viability, T/C [9]: 110%
viability, T/C [10]: 112%
viability, T/C [11]: 116%
viability, T/C [12]: 88.3%
viability, T/C [13]: 27.9%
viability, T/C [14]: 35.2%
viability, T/C [15]: 38.1%
viability, T/C [16]: 41.4%
viability, T/C [17]: 37.6%
viability, T/C [18]: 24.7%
viability, T/C [19]: 1.29%
viability, T/C [20]: 1.17%
viability, T/C [21]: 1.31%
viability, T/C [22]: 1.24%
viability, T/C [23]: 2.37%
viability, T/C [24]: 2.29%
viability, T/C [25]: 0.53%
viability, T/C [26]: 0.78%
viability, T/C [27]: 0.7%
viability, T/C [28]: 0.78%
viability, T/C [29]: 1.84%
viability, T/C [30]: 3.69%
viability, T/C [31]: 0.44%
viability, T/C [32]: 0.59%
viability, T/C [33]: 1.65%
viability, T/C [34]: 0.86%
viability, T/C [35]: 1.07%
viability, T/C [36]: 0.98%
